Test systems include 786-0 renal; A549 NSCLC; HCC-2998 colon; HL-60(TB) leukemia; K-562 leukemia; LOX IMVI melanoma; M14 melanoma; OVCAR-3 ovarian; SNB-75 CNS; UACC-62 melanoma.
What all share (assay): NCI tumour cell line growth inhibition, 48 h

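Compound exposure: 48 hours, 5 concentrations, 96-well plates. GI50 is the concentration that inhibits growth by half. The concentration for full growth arrest is given as TGI.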

For `COc1cc(CNC(=O)/C=C/C=C/c2ccc3c(c2)OCO3)ccc1OCc1cn(-c2ccc(Cl)c(Cl)c2)nn1`, the GI50 in the test with 786-0 renal was 2.03 µM; in the test with A549 NSCLC, 0.999 µM; in the test on HCC-2998 colon, 2.1 µM; in the test on HL-60(TB) leukemia it was 2.08 µM; in the test on K-562 leukemia it was 0.509 µM; in the test on LOX IMVI melanoma, 1.78 µM. For the same compound, the GI50 with M14 melanoma was 0.982 µM; with OVCAR-3 ovarian, 1.42 µM; in the test with SNB-75 CNS it was 1.94 µM; in the test on UACC-62 melanoma, 1.26 µM. Moreover, the TGI in the test on 786-0 renal amounted to 4.28 µM; in the test on A549 NSCLC, 4.18 µM; in the test on HCC-2998 colon, 4.74 µM; in the test with HL-60(TB) leukemia, 5.73 µM; in the test with K-562 leukemia it was 3.78 µM; with LOX IMVI melanoma, 3.96 µM. Besides, the TGI with M14 melanoma stood at 2.39 µM; in the test with OVCAR-3 ovarian, 2.81 µM; in the test on SNB-75 CNS, 5.99 µM; with UACC-62 melanoma, 2.65 µM.
Consider `C[N+](C)(C)CCOP(=O)(O)OP(=O)([O-])OCC1CCC(n2ccc(N)nc2=O)O1` (stereo not given), for which the TGI in the test with 786-0 renal, in the test with A549 NSCLC, in the test on HCC-2998 colon, with HL-60(TB) leukemia, in the test with K-562 leukemia and with LOX IMVI melanoma was over 100 µM throughout. Besides, the TGI in the test with M14 melanoma, in the test with OVCAR-3 ovarian, in the test with SNB-75 CNS and in the test on UACC-62 melanoma was over 100 µM throughout.
As to `OC(c1cc(C(O)(C(F)(F)F)C(F)(F)F)ncn1)(C(F)(F)F)C(F)(F)F`, the TGI with 786-0 renal, in the test on A549 NSCLC, in the test with HCC-2998 colon, with HL-60(TB) leukemia, in the test with K-562 leukemia and in the test on LOX IMVI melanoma was over 10 µM each time. For the same compound, the TGI in the test on M14 melanoma, in the test with OVCAR-3 ovarian, with SNB-75 CNS and in the test on UACC-62 melanoma was over 10 µM in each case.
Take `CCN(CC)CCn1ncc2ccc3c(c(=O)c4cccnc4n3CCN(CC)CC)c21`: the TGI in the test with 786-0 renal is 4.6 µM; in the test with A549 NSCLC it was over 10 µM; in the test with HCC-2998 colon, 2.14 µM; in the test on HL-60(TB) leukemia it was 2.83 µM; in the test on K-562 leukemia, 3.33 µM; in the test with LOX IMVI melanoma it was over 6.79 µM. Also, the TGI in the test with M14 melanoma stood at 2.79 µM; in the test on OVCAR-3 ovarian, 4.12 µM; with SNB-75 CNS, 2.81 µM; in the test on UACC-62 melanoma, 5.15 µM.
Turning to `COc1cc2c(cc1OC)C(CCc1ccc(Cl)cc1)N(C)CC2` (stereo not given), the GI50 in the test on 786-0 renal was 17.4 µM; in the test with A549 NSCLC, 45.2 µM; in the test on HCC-2998 colon, 16.4 µM; with HL-60(TB) leukemia, 17.2 µM; in the test on K-562 leukemia, 24.7 µM; in the test on LOX IMVI melanoma, 15 µM. In addition, the GI50 was 17.3 µM with M14 melanoma, 33.3 µM in the test with OVCAR-3 ovarian, 11.9 µM in the test with SNB-75 CNS and 20.1 µM with UACC-62 melanoma. For the same compound, the TGI is 48.9 µM in the test on 786-0 renal; over 100 µM in the test with A549 NSCLC; 31.1 µM in the test on HCC-2998 colon; 44.3 µM with HL-60(TB) leukemia; 66.1 µM in the test on K-562 leukemia; 30.8 µM with LOX IMVI melanoma. The TGI was 37.7 µM in the test on M14 melanoma, over 100 µM in the test with OVCAR-3 ovarian, 43.5 µM in the test on SNB-75 CNS and 44.5 µM in the test with UACC-62 melanoma.
As for `C/C(CC(O)(C(F)(F)F)C(F)(F)F)=N\N`, the TGI with 786-0 renal, in the test on A549 NSCLC, in the test with HCC-2998 colon, in the test on HL-60(TB) leukemia, in the test with K-562 leukemia and in the test on LOX IMVI melanoma was over 10 µM throughout. Further, the TGI in the test with M14 melanoma, with OVCAR-3 ovarian, with SNB-75 CNS and in the test on UACC-62 melanoma was over 10 µM in each case.
`CC(C)=CC/C=C(/C)[C@H]1CC[C@]2(C)[C@@H]1CC[C@@H]1[C@@]3(C)CCC(=O)NC(C)(C)[C@@H]3CC[C@]12C`: the GI50 with 786-0 renal was 19.8 µM; in the test with A549 NSCLC it was 30.2 µM; in the test with HCC-2998 colon it was 20.2 µM; in the test on HL-60(TB) leukemia, 18.2 µM; with K-562 leukemia, 17.3 µM; with LOX IMVI melanoma, 17.9 µM. For the same compound, the GI50 with M14 melanoma was 17.8 µM; in the test with OVCAR-3 ovarian, 18.3 µM; in the test on SNB-75 CNS it was 20.9 µM; in the test with UACC-62 melanoma, 16.9 µM. In addition, the TGI with 786-0 renal is 37.5 µM; in the test on A549 NSCLC, over 100 µM; with HCC-2998 colon it was 35.8 µM; with HL-60(TB) leukemia, 49.3 µM; with K-562 leukemia, 88.2 µM; with LOX IMVI melanoma, 32.4 µM. Besides, the TGI in the test on M14 melanoma was 39.3 µM; in the test with OVCAR-3 ovarian, 34.1 µM; in the test on SNB-75 CNS, 55.1 µM; in the test with UACC-62 melanoma, 43.5 µM.
For the compound `CCN1CCN(CCOc2ccc(CNc3ccc4nc(CCC5CCCCC5)[nH]c4c3)cc2)CC1`, the GI50 with 786-0 renal was 1.57 µM; with A549 NSCLC, 2.61 µM; in the test on HCC-2998 colon it was 2.22 µM; with HL-60(TB) leukemia, 1.87 µM; in the test with K-562 leukemia, 0.42 µM; in the test on LOX IMVI melanoma it was 1.71 µM. Further, the GI50 in the test on M14 melanoma is 1.68 µM; in the test on OVCAR-3 ovarian, 1.89 µM; in the test on SNB-75 CNS, 1.66 µM; in the test on UACC-62 melanoma it was 1.93 µM. The TGI came to 3.39 µM in the test on 786-0 renal; 8.13 µM in the test on A549 NSCLC; 5.07 µM in the test with HCC-2998 colon; 3.92 µM in the test with HL-60(TB) leukemia; 2.69 µM in the test with K-562 leukemia; 3.15 µM in the test with LOX IMVI melanoma. The TGI in the test with M14 melanoma amounted to 3.29 µM; with OVCAR-3 ovarian, 4.34 µM; with SNB-75 CNS, 4.07 µM; with UACC-62 melanoma it was 3.52 µM.
With `O=C(NCCCN1CCN(CCCNC(=O)c2cnc3ccccc3n2)CC1)c1cnc2ccccc2n1`, the TGI in the test with 786-0 renal, in the test on A549 NSCLC, with HCC-2998 colon, in the test on HL-60(TB) leukemia, in the test on K-562 leukemia and in the test with LOX IMVI melanoma was over 100 µM in each case. Further, the TGI in the test with M14 melanoma, in the test with OVCAR-3 ovarian, in the test with SNB-75 CNS and in the test with UACC-62 melanoma was over 100 µM in each case.

Values taken from PubChem BioAssay (NCI).
